Legend:
[1] = Solubility in lubricating oil (Mobil BB oil); format: physicochemical
Description: The following experiments are performed to determine the solubility of amorphous compound A and crystalline compound B in Mobil BB oil. Both compounds have the same uniform particle sizes (40-70 micron).
Compound A=amorphous form of 2,2',2"-nitrilo-[triethyl-tris-(3,3',5,5'-tetra-tert-butyl-1,1'-biphenyl-2,2'-diyl) phosphite], prepared in accordance with instant Example 1.
Compound B=crystalline form of 2,2',2"-nitrilo[triethyl-tris-(3,3',5,5'-tetra-tert-butyl-1,1'-biphenyl-2,2'-diyl) phosphite], prepared in accordance with Example 4 of U.S. Pat. No. 4,318,845.
Into a vial of 980 mg. of Mobil BB oil is added 20 mg. of compound A at ambient temperature. For the first 30 minutes, the vial is shaken every 10 minutes. After the initial 30 minutes, the vial is left standing.
Into a vial of 980 mg. of Mobil BB oil is added 20 mg. of compound B at ambient temperature. For the first 30 minutes, the vial is shaken every 10 minutes. After the initial 30 minutes, the vial is left standing.
Into a vial of 980 mg. of Mobil BB oil is added 20 mg. of compound A at ambient temperature. The vial is then placed into a 60° C. oil bath.
Into a vial of 980 mg. of Mobil BB oil is added 20 mg. of compound B at ambient temperature. The vial is then placed into a 60° C. oil bath.
Into a vial of 990 mg. of Mobil BB oil is added 10 mg. of compound A at ambient temperature. […] is shaken every 10 minutes. After the initial 30 minutes, the vial is left standing.
Into a vial of 990 mg. of Mobil BB oil is added 10 mg. of compound B at ambient temperature. […] is shaken every 10 minutes. After the initial 30 minutes, the vial is left standing.

[2] = Stabilization of unsaturated elastomer: time until onset of crosslinking; conditions: 0.5% by weight, 150° C., 60 rpm; versus unstabilized SBR
Description: The instant compound of Example 1 is evaluated in an emulsion of SBR (cold polymerized, 23.5% styrene with a 52 Mooney Viscosity). The unstabilized SBR (60 g) is added to the mixing chamber of a Brabender Plasticorder set at 150° C. and 60 rpm. After 30 seconds, 0.5% by weight of the compound of instant Example 1 is added to the chamber. Stability of the SBR is determined by the time until onset of crosslinking of the rubber as indicated by an increase in the torque curve.

[3] = Stabilization of polyol: discoloration or scorch of foam; conditions: 1000 ppm plus BHT 2000 ppm and NAUGARD 445 2000 ppm; versus control stabilizer package
Description: A premix of 10 g of water, 0.25 g of triethylenetetramine, 2 g of L-5740 (silicone surfactant, Union Carbide) and 20 g of ANTIBLAZE® AB-100 (chlorinated aromatic flame retardant, Albright & Wilson) is added to 200 g of 3000 molecular weight polyether polyol containing the stabilizer package listed below*. The mixture is stirred for five minutes with a high speed Lightning Mixer. Then 0.4 g of stannous octoate is added and the mixture is stirred for 5 seconds. Finally, 125 g of toluene diisocyanate ([…]) is added. The mixture is stirred for 7 seconds at high speed mixing and is then poured into a 10"×10"×5" (25.4 cm×25.4 cm×12.7 cm) cardboard box. The foam is allowed to rise completely. After standing 5 minutes, the box is removed and the sample cured in a microwave over for five minutes at 50% power. The foam is then immediately air over cured at 125° C. for three minutes. The foams are then cut in half for visual assessment of discoloration or scorch.
Control is 2,6-di-tert-butyl-4-methylphenol (BHT) 2000 ppm; and NAUGARD® 445 (diphenylamine antioxidant, Uniroyal) 2000 ppm.
Instant package is the above plus 1000 ppm of the compound of Example 1.

[4] = Stabilization of poly(ethylene terephthalate): intrinsic viscosity; conditions: 0.5% by weight, five extrusion passes; versus PET containing no stabilizer
Description: Poly(ethylene terephthalate), PET (KODAPAR® 7352, Eastman Chemical) is tumble blended with 0.5% by weight of the compound of instant Example 1. The polymer is then extruded and pelletized at 500° F. (260°C.) in a MPM 1" (2.54 cm) single screw extruder. The pellets are collected, redried and reextruded 5 times. Pellets are collected from each extrusion pass and the polymer intrinsic viscosity measured.

[5] = Stabilization of poly(butylene terephthalate): yellowness index; conditions: 0.3% by weight; versus control unstabilized PBT
Description: Poly(butylene terephthalate), PBT (RYNITE® 9160, DuPont) is tumble blended with 0.3% by weight of the compound of instant Example 1. The polymer is then extruded and pelletized at 260° C. A portion of the collected pellets are reextruded under the same conditions for a second pass. The remainder from the first extrusion is injection molded into 2"×2"×125 mil (5.08 cm×5.08 cm×3.175 mm) plaques at 540° F. (282° C.) with a 100° C. mold temperature in a BOY 30M molder. Intrinsic viscosities of the second pass extrudate and the injection molded plaques are determined.
The plaques are measured for yellowness index (color) using ASTM D 1925-70.

[6] = Stabilization of ABS: yellowness index; conditions: 0.25 g per 100 g of ABS; air oven at 180° C. for 45 minutes; versus unstabilized ABS resin
Description: A solution of 0.25 g of the instant compound of Example 1 in 40 ml of hexane/methanol is added to a rapidly stirred suspension of 100 g of ABS (acrylonitrile/butadiene/styrene terpolymer) in 600 g of water. The suspension is filtered and dried under vacuum at 40° C. for 40 hours. To the dried powder is added 2% by weight of titanium dioxide and 1% by weight of N,N'-ethylenebisstearamide on a two roll mill at 180° C. over four minutes. Compression molded plaques (0.8 mm) are prepared at 175° C. and placed in an air oven at 180° C. for 45 minutes. The color of said plaques are determined as yellowness index values using ASTM D1925-70.

[7] = compared to the prior art crystalline form

## CC(C)(C)c1cc(C(C)(C)C)c2op(OCCN(CCOp3oc4c(C(C)(C)C)cc(C(C)(C)C)cc4c4cc(C(C)(C)C)cc(C(C)(C)C)c4o3)CCOp3oc4c(C(C)(C)C)cc(C(C)(C)C)cc4c4cc(C(C)(C)C)cc(C(C)(C)C)c4o3)oc3c(C(C)(C)C)cc(C(C)(C)C)cc3c2c1 [Example 1, 2,2',2"-nitrilo[triethyl-tris-(3,3',5,5'-tetra-tert-butyl-1,1'-biphenyl-2,2'-diyl)phosphite]]
[1]; 1% by weight in Mobil BB oil, RT, 1.5 hrs., listed as A
  Observation: Clear solution
[1]; 1% by weight in Mobil BB oil, RT, 1.5 hrs., listed as compound A
  Observation: clear solution
[1]; 1% by weight in Mobil BB oil, RT, listed as A
  Time to clear solution: 1.5 h
[1]; 1% by weight in Mobil BB oil, RT, listed as compound A
  Time to clear solution: 1.5 h
[1]; 2% by weight in Mobil BB oil, 60° C. oil bath, 10 min., listed as A
  Observation: Clear solution
[1]; 2% by weight in Mobil BB oil, 60° C. oil bath, 10 min., listed as compound A
  Observation: clear solution
[1]; 2% by weight in Mobil BB oil, 60° C. oil bath, listed as A
  Time to clear solution: 0.167 h
[1]; 2% by weight in Mobil BB oil, 60° C. oil bath, listed as compound A
  Time to clear solution: 0.167 h
[1]; 2% by weight in Mobil BB oil, RT, 2.5 hrs., listed as A
  Observation: Clear solution
[1]; 2% by weight in Mobil BB oil, RT, 2.5 hrs., listed as compound A
  Observation: clear solution
[1]; 2% by weight in Mobil BB oil, RT, listed as A
  Time to clear solution: 2.5 h
[1]; 2% by weight in Mobil BB oil, RT, listed as compound A
  Time to clear solution: 2.5 h
[1]; [7]
  rate of dissolving in lubricants: faster rate of dissolving
  rate of dissolving in organic materials, such as in polymers and in lubricants: faster rate of dissolving
  solubility in lubricants: better solubility
  solubility in organic materials, such as in polymers and in lubricants: better solubility
[2]
  induction time till crosslinking occurs: longer induction time
[3]
  discoloration of foam (visual inspection): less discolored
  scorch protection: better scorch protection
[4]
  retention of original intrinsic viscosity: higher retention of original intrinsic viscosity
[5]
  yellowness index (color): lower YI values (less discoloration)
[6]
  yellowness index: lower yellowness index values (less discoloration)

Source: patent US5373040A, “Amorphous solid modification of 2,2',2"-nitrilo[triethyl-tris-(3,3',5,5'-tetra-tert-butyl-1,1'-biphenyl- 2,2'-diyl)phosphite]” (Ciba-Geigy Corporation, priority 1993, dated 1994)
